Data taken from US9713618B2, “Method for modifying food intake and regulating food preference with a DPP-4 inhibitor” (Boehringer Ingelheim International GmbH, priority 2012, dated 2017).
Where no end group is shown, it is not given here.

Tests used:
[1] = Safety and tolerability in people with type 2 diabetes
[2] = Diet-induced obese (DIO) rats: body weight, food intake, diet preference; assay type: in vivo, rat; details: 14 days of monotherapy
Excerpt: (§1) This anti-obesity effect is caused by appetite suppression and change in diet preference, presumably associated with increased dynorphin activity in dopaminergic forebrain regions involved in reward anticipation and habit learning.

[3] = Overall body weight in diabetic ZDF rats dosed daily for 4 days; assay type: in vivo, Male ZDF-Leprfa/Crl (diabetic fa/fa) rats; details: po daily 4 days
Method: (§2) Male ZDF-Leprfa/Crl (diabetic fa/fa) rats fed standard chow are allocated (n=10/group) based on body weight and fasting plasma glucose (FPG). […] An oral sucrose tolerance test (4 g/kg po) is performed on Day 4 and body weight is recorded daily.

[4] = Pharmacokinetics of BI 1356 after multiple oral doses once daily for 12 days in patients with type 2 diabetes; details: for fe0-24 / feτ, ss: gMean; for feτ, ss: steady state (Day 12)
[5] = Acute nocturnal food intake in normal-weight rats; assay type: in vivo, rat; details: linagliptin 0.5 mg/kg sc BID, GLP-1 0.4 mg/kg sc BID
Excerpt: as §1

active GLP-1 = assay: Plasma active GLP-1 5 min after sucrose load in diabetic ZDF rats; assay type: in vivo, Male ZDF-Leprfa/Crl (diabetic fa/fa) rats; details: 5 min after the sucrose load
Method: as §2

[6] = Oral sucrose tolerance test (glucose control) on Day 4 in diabetic ZDF rats; assay type: in vivo, Male ZDF-Leprfa/Crl (diabetic fa/fa) rats; details: po daily 4 days, oral sucrose tolerance test Day 4
Method: as §2

[7] = S1: linagliptin 1 mg/kg, voglibose 10 mg/kg
[8] = S2: linagliptin 1 mg/kg, voglibose 1 mg/kg
[9] = S1: linagliptin 1 mg/kg, high-dose voglibose 10 mg/kg
[10] = S2: linagliptin 1 mg/kg, low-dose voglibose 1 mg/kg

Compound	safety and tolerability [1]	body weight [2]	change in overall weight compared with vehicle [3, 7]	change in overall weight compared with vehicle [3, 8]	mean accumulation ratio RA,AUC ([4]; doses above 1 mg)	fe0-24 ([4]; 2.5 mg oral once daily)	fe0-24 ([4]; 5 mg oral once daily)	fe0-24 ([4]; 10 mg oral once daily)	feτ, ss ([4]; 1 mg oral once daily)	feτ, ss ([4]; 2.5 mg oral once daily)	feτ, ss ([4]; 5 mg oral once daily)	feτ, ss ([4]; 10 mg oral once daily)	form and route of excretion ([4]; human, in vivo)	excreted via the kidney ([4]; therapeutic oral dose levels)	main route of excretion ([4]; therapeutic oral dose levels)	nocturnal food intake [5]	plasma active GLP-1 increase compared with vehicle (active GLP-1; S1 (voglibose 10 mg/kg))	plasma active GLP-1 increase compared with vehicle (active GLP-1; S2 (voglibose 1 mg/kg))	glucose control compared with vehicle [6, 9]	glucose control compared with vehicle [6, 10]
CC#CCn1c(N2CCC[C@@H](N)C2)nc2c1c(=O)n(Cc1nc(C)c3ccccc3n1)c(=O)n2C [BI 1356]	placebo-like safety and tolerability	no effect	+0.7%	−0.2%	≤ 1.4	0.139%	0.453%	0.919%	3.34%	3.06%	6.27%	3.22%	primarily excreted unchanged via the bile	< 7 % of the administered oral dose	mainly excreted via the liver	no effect	160%	144%	−10%	−17%
OCC(CO)N[C@H]1C[C@](O)(CO)[C@@H](O)[C@H](O)[C@H]1O [voglibose, reference compound]	–	–	−3.0%	−1.7%	–	–	–	–	–	–	–	–	–	–	–	–	–	–	−33%	−18%
GLP-1: native GLP-1(7-36), short acting GLP-1 receptor agonist (HAEGTFTSDVSSYLEGQAAKEFIAWLVKGR; ends and bridges not checked; UniProt P01275 98-127, looked up, fragment) [reference compound]	–	no effect	–	–	–	–	–	–	–	–	–	–	–	–	–	modest and short-lived suppression	–	–	–	–
